In patent publication US20050059641A1, “Compositions and methods for treating and preventing cancer using analogs of vitamin D” (Aphios Corporation, priority 2003, published 2005):

Key:
[1] = test system: keratinocytes (primary cells); assay: 3H-thymidine incorporation assay, keratinocytes; format: cell-based, human; conditions: 10^−6M
Text: (§1) It is well known that secretory epithelial cells are the main sites for the development of cancers of the breast, prostate and various other organs.
(§2) In a study, investigators compared the growth-inhibitory effects of 25-OH-D3-3-BE and 1,25(OH)2D3 in several VDR-positive epithelial cells, e.g. keratinocytes (primary skin cells), MCF-7 cells (breast cancer cells), hormone-sensitive LNCaP and hormone-refractory PC3 cells (prostate cancer cells), and PZ-HPV-7 (papillovirus immortalized normal prostate cells) by using ^3H-thymidine incorporation assays (FIGS. 14-19).

[2] = test system: MCF-7 cells (breast cancer cells); assay: 3H-thymidine incorporation assay, MCF-7; format: cell-based; conditions: 10^−6M
Text: as §1
It is well-established that the biological properties of 1,25(OH)2D3 and its analogs are mediated by their interaction with VDR.
as §2

[3] = test system: LNCaP cells (prostate cancer cells); assay: 3H-thymidine incorporation assay, LNCaP; format: cell-based, human; conditions: 10^−6M
Protocol: (§3) The inventors further studied the effect of 1,25(OH)2D3-3-BE on LNCAP cells (most closely resembling human hormone-sensitive prostate cancer) and PZ-HPV-7 cells (immortalized normal prostate cells). The cells were treated with ethanol or 10^−6M of either 1,25(OH)2D3 or 1,25(OH)2D3-3-BE for 16 hours and the effect on proliferation was determined by ^3H-thymidine incorporation assays as described earlier. The viable cell count was determined by Methylene blue assay. The Methylene blue assay is a simple colorimetric method that is widely used to determine the viable cell count.
The inventors studied dose-dependency of antiproliferation and cytotoxicity by 1,25(OH)2D3 or 1,25(OH)2D3-3-BE in LNCaP cells. The cells were treated with 10^−8-10^−6M of either 1,25(OH)2D3 or 1,25(OH)2D3-3-BE or ethanol (used as a control). The effect on proliferation and viable cell count were determined by using ^3H-thymidine incorporation and Methylene blue assay respectively. […]
as §2

[4] = test system: PC3 cells (prostate cancer cells); assay: 3H-thymidine incorporation assay, PC3; format: cell-based, human; conditions: PC-3 cells, 10^−6M
Text: as §1, §2
Since 25-OH-D3-3-BE contains an ester bond, its hydrolysis by esterases in growing cells would produce equimolar amounts of bromoacetic acid (BAA) and 25-OH-D3 (see, FIG. 21).
Furthermore, fetal calf serum (FCS) contains many proteins, including vitamin D-binding protein, which potentially could absorb 25-OH-D3-3-BE before it reacts with VDR. Typically, the assays described herein were carried out in a media containing 10% FCS (after serum-depriving the cells for 15 hours).

[5] = test system: PZ-HPV-7 (papillovirus immortalized normal prostate cells); assay: 3H-thymidine incorporation assay, PZ-HPV-7; format: cell-based; conditions: PZ-HPV-7 cells, 10^−6M
Protocol: as §1, §3, §2

[6] = in vivo toxicity study in CD-1 mice; set-up: Serum Calcium on day 12: unit not given here; conditions: for Body Weight on Day 12 / Serum Calcium on day 12 / Body Weight On Day 0: CD-1 mice; for Body Weight On Day 0: beginning of the experiment
Text: Investigators completed an in vivo study to determine the toxicity of 25-OH-D3-3-BE at various doses in CD-1 mice. The animals (average weight ˜30 gms) were maintained with normal chow and water ad libitum. […] At the end of the experiment the animals were lightly anesthetized and blood collected after decapitation for serum calcium-analysis. […] Frequency of administration, body weights at the beginning and at the end of the experiment and serum calcium values are given in the accompanying Table 1.

[7] = test system: prostate tumor induced with PC-3 cells; assay: in vivo effect in mice bearing prostate tumor induced with PC-3 cells; set-up: species or system male SCID mice; conditions: SCID mice with PC-3 tumor
Protocol: Sesame oil solutions (200 μl) of either 25-OH-D3 (10 μg) or 25-OH-D3-3-BE (13.2 μg, molar equivalent of 25-OH-D3) or vehicle were administered i.p. in alternate days for two weeks. […] At the end, mice were anesthetized, tumors were removed, and blood was collected. Tumors were embedded in paraffin and sections were made.

PC-3 cells = assay: DNA-fragmentation analysis; format: cell-based, human; conditions: 250 nM, 10 hours
Protocol: (a) DNA-fragmentation analysis: PC-3 cells (2×10^6) were treated with 250 nM of 1,25(OH)2D3, 25-OH-D3 or 25-OH-D3-3-BE for 10 hours. The cells were harvested and lysed in 0.5 ml lysis buffer (20 mM Tris-HCl, 10 mM EDTA, 0.5% Triton X-100, pH 8.0), and DNA was extracted using phenol-chloroform procedure. The DNA was resuspended in 0.1 ml of 20 mM Tris-HCl, pH 8 and treated with Rnase, followed by electrophoresis on 1.2% agarose gel in TAE. The DNA was visualized under UV light after ethidinium bromide staining.

caspase-3 = assay: Caspase Colorimetric assay, caspase-3; format: cell-based; conditions: PC3 cells, 10 nM, 14 hours
Protocol: (§4) Caspase-activity: There are several markers for apoptosis, and caspase activity is one of them; and their levels normally go up under apoptotic conditions. Investigators determined the levels of caspases 3, 8 and 9 by Caspase Colorimetric assay kits from R&D Systems (Minneapolis, Minn.) and used according to the manufacturer's instructions. Briefly, PC3 cells (1×10^6) were treated with 10 nM of 1,25(OH)2D3, 25-OH-D3 or 25-OH-D3-3-BE for 14 hours in culture medium (DMEM, 10% FBS and antibiotics). The cells were collected by centrifugation at 1000 RPM for 5 min. The cell pellet was lysed with lysis buffer, and the lysate was incubated on ice for 10 min. and centrifuged for 10,000 RPM for 5 min. Protein was estimated using Bradford protein estimation kit (BioRad). The enzymatic reactions were carried out in 96 well plate. For each reaction 100 μg lysate protein in 50 μl was incubated with 50 μl of 2×reaction buffer and 5 μl of caspase-3 or caspase-8 or caspase-9 calorimetric substrate for 2 h at 37° C. The absorbance was determined at 405 nm.

caspase-8 = assay: Caspase Colorimetric assay, caspase-8; format: cell-based; conditions: PC3 cells, 10 nM, 14 hours
Protocol: as §4

caspase-9 = assay: Caspase Colorimetric assay, caspase-9; format: cell-based; conditions: PC3 cells, 10 nM, 14 hours
Protocol: as §4

C=C1CCC(OC(=O)CBr)CC1=CC=C1CCCC2(C)C1CCC2C(C)CCCC(C)(C)O (stereo not drawn) [25-OH-D3-3-BE, 25-hydroxyvitamin D3-3-bromoacetate]
growth-inhibitory effect (3H-thymidine incorporation) [1]: antiproliferative
lethal to the cells [1]: not
growth-inhibitory effect (3H-thymidine incorporation) [2]: antiproliferative
lethal to the cells [2]: not
growth-inhibitory effect (3H-thymidine incorporation) [3]: stronger antiproliferative agent than 1,25(OH)2D3
lethal to the cells [3]: lethal
growth-inhibitory effect (3H-thymidine incorporation) [4]: stronger antiproliferative agent than 1,25(OH)2D3
lethal to the cells [4]: lethal
growth-inhibitory effect (3H-thymidine incorporation) [5]: antiproliferative
lethal to the cells [5]: not
Body Weight on Day 12 ([6]; 3.3 μg/kg intraperitoneally): 30.36 ± 1 grams
Serum Calcium on day 12 ([6]; 3.3 μg/kg intraperitoneally): 9.1 ± 0.2
Body Weight On Day 0 ([6]; 3.3 μg/kg intraperitoneally): 29 ± 0.6 grams
Body Weight on Day 12 ([6]; 33 μg/kg intraperitoneally): 32.9 ± 1.4 grams
Serum Calcium on day 12 ([6]; 33 μg/kg intraperitoneally): 9.4 ± 0.2
Body Weight On Day 0 ([6]; 33 μg/kg intraperitoneally): 31 ± 0.83 grams
Body Weight on Day 12 ([6]; 166.7 μg/kg intraperitoneally): 30.7 ± 1 grams
Serum Calcium on day 12 ([6]; 166.7 μg/kg intraperitoneally): 9.7 ± 0.1
Body Weight On Day 0 ([6]; 166.7 μg/kg intraperitoneally): 30.55 ± 0.7 grams
toxicity in vivo ([6]; mouse, dose as high as 166.7 μg/Kg): non-toxic
loss of body weight ([7]; 13.2 μg i.p. in alternate days for two weeks): no significant loss of body weight
Hematoxylin-Eosin staining of the tumor sections ([7]; 13.2 μg i.p. in alternate days for two weeks, versus vehicle (sesame oil)): considerably less cellular
condition of the mice at the end of treatment ([7]; 25-OH-D3 10 μg or 25-OH-D3-3-BE 13.2 μg (molar equivalent) i.p. in alternate days for two weeks): viable
DNA fragmentation (apoptosis) (PC-3 cells): DNA fragmentation was observed
Caspase-3 induction (caspase-3): induced
Caspase-8 induction (caspase-8): induced
Caspase-9 induction (caspase-9): induced
